# Patent US12551434B2, “Zwitterionic polymer particle compositions and related methods” (WAYNE STATE UNIVERSITY, priority 2020, dated 2026)
# Where two headings read alike, the source gives them in different places.
# How the values were obtained:
# [1] = test system: Caco-2 cells (PAT1 overexpression); assay: Cell uptake of micelle/polystyrene nanoparticles (confocal, flow cytometry); type: cell-based, human
# Method: Cell uptake of polystyrene nanoparticles for Caco-2 and 3T3 cells. Caco-2 human colon epithelial cells and NIH 3T3 mouse embryonic fibroblast cells were used as received from the American Type Culture Collection without further authentication, and were cultured in Dulbecco's Modified Eagle's Medium (DMEM) and Eagle's Minimum Essential Medium (EMEM) at 37° C. in a 5% CO2 environment respectively. […] Cells were seeded in a 12-well plate at a density of 1×10^5 cells per well overnight, washed twice with pre-wared PBS, and incubated with DSPE-PCB/polystyrene nanoparticles in culture medium at 37° C. for 2 h. […] Cellular uptake of DSPE-PCB/polystyrene nanoparticles in different groups was examined by an Zeiss LSM 780 confocal laser scanning microscope. The Z-stack method was used for three-dimensional visualization, where the section thickness was 2.5 μm, the step interval was 2 m, and the total z-stack length was 44 μm (23 slices). Fluorescent signal was quantified by using the image J software. Cellular uptake was also quantitively measured with flow cytometry (BD FACSAria II flow cytometer) and analyzed with FlowJo X software.
# Caco-2 monolayers = assay: Transepithelial electrical resistance (TEER) study
# Method: Transepithelial electrical resistance (TEER) study. Caco-2 cells were suspended in EMEM supplemented with 20% FBS, and seeded at a density of 2×10^5 cells per well on Corning® Transwell polyester membrane cell culture inserts and incubated for 96 h. The TEER was monitored to confirm proper barrier formation and only monolayers with initial TEER values of at least 300Ω×cm^2 were used for TEER or molecular permeability experiments. Prior to the study, the medium in the apical and basolateral chambers was replaced with prewarmed EMEM. After equilibration at 37° C. for 30 min, the apical solution was replaced with Sodium decanoate, polysorbate 80 or DSPE-PCB (0.2% w/v) in EMEM. After incubation for 4 h, the TEER value of each insert was measured with EVOM2
# Epithelial volt/ohmmeter to explore the integrity of the tight junction.
# healthy mice = assay: Long-term safety of repeated consecutive dosing; details: for serum endotoxin and pro-inflammatory cytokines (TNF-α, IFN-γ, IL-6): healthy mice, oral gavage twice daily 14 days, day 0 and 14, before and 1 h after dose
# Method: Long-term safety of repeated consecutive dosing. […] At day 14, the lactulose/mannitol experiment was conducted to examine potential tight junction opening through the lactulose-mannitol intestinal permeability test. In addition, the ileum tissue was collected and fixed in 10% zinc fixative (BD Pharmingen™), dehydrated in ethanol, and embedded in paraffin. Five-μm cross-sections of intestine tissue were deparaffinized, rehydrated, and stained with Hematoxylin and Eosin. Histological morphology was examined using an EVOS XL Core Cell Imaging microscope. In addition, healthy mice received the same oral administered with DSPE-PCB micelle, saline, Polysorbate 80, or sodium decanoate twice daily for 14 consecutive days (the same dose as above). On day 0 and 14, before and 1 h after the oral administration, blood serum was collected and the endotoxin and pro-inflammatory cytokines (IFN-γ, IL-1β, ILL-4, IL-6, IL-12, TNF-α) were measured with Pierce LAL Chromogenic Endotoxin Quantitation Kit and the mouse magnetic Luminex® assays (Lot No: L131929).
# [2] = test system: intestinal tight junctions; assay: Lactulose-mannitol intestinal permeability test; type: in vivo; details: healthy and diabetic mice, 1 h after ileum co-injection, vs control without micelles
# Method: The lactulose-mannitol intestinal permeability test. Healthy and diabetic mice remained fasted for 8 h and were restricted from water for 3 h before the experiment. Then mice received 500 μL water through oral gavage. 1 h later, the lactulose, mannitol, and free micelles were co-administered via ileum injection at the dose of 40/8/5.2 mg/ml (50 μL) and the wound is closed with wound clips. 1 h post ileum injection, the urine was collected, and the ileum tissue surrounding the injection site was collected for TEM imaging. The concentrations of lactulose and mannitol were measured using LC-MS-MS, with a mobile phase of 10 mM ammonium formate in water and acetonitrile (90:10), and an Agilent advanced bio glucan mapping column (2.1×100 mm×2.7 μm) (precursor and product: mannitol 180.7→89; lactulose 341.2→160.8).
# [3] = test system: intestine epithelial tight junctions; assay: TEM imaging of tight junctions after ileum injection; details: 1 h post ileum injection
# Method: (§1) 1 h post ileum injection of the formulations, mice were euthanized and small parts of ileum (5×5 mm) near to the injection site were collected and washed with PBS. The samples were continuously fixed in 2.5% glutaraldehyde+2.5% paraformaldehyde in 0.1M PBS buffer and 4% osmium tetroxide solution and transferred into Beem® embed capsule with micro-embed resin added to embed samples. The obtained blocks were further sectioned with ultra-microtomy to obtain sections with thickness of ˜70 nm. These sections were retrieved via copper grid and stained with 1% lead citrate and 4% uranyl acetate separately, and then visualized under a JEM-100CX II electron microscope operated at 100 kV.
# [4] = test system: intestine epithelial tight junctions; details: mouse, in vivo
# Method: as §1
# [5] = type: in vitro ADME, porcine
# Method: Tracking nanoparticle diffusion in mucus. Nanoparticle diffusion behavior in mucus was studied by modifying methods as described in Lai, S. K. et al. P Natl Acad Sci USA 104, 1482-1487 (2007) and Olmsted, S. S. et al. Biophys J 81, 1930-1937 (2001). Mucus was reconstituted by dissolving porcine stomach mucin in phosphate buffered saline (PBS) at 30 mg/ml. Nanogels were added into 100 μl mucus to reach a final concentration of 3% vol/vol (final particle concentration, 8.25×10^−7 wt/vol) and incubated for 1 h on a Nunc™ glass bottom dish (0.17 mm thickness for the inside bottom glass) before observation. Movies were captured with 64×oil-immersion objective in a spinning disc confocal microscope (Yokogawa CSU-X1M 5000 microlens, Zeiss LSM 800). For each nanogel sample, trajectories of n=50 particles were analyzed, and three samples were examined for each type of nanogel. MSD was calculated with the equation of MSD=<|r(t)-r(0)|^2> at a temporal resolution of 200 ms for 20 s.
# [6] = test system: streptozotocin (STZ)-induced C57BL/6 diabetic mice; assay: Blood glucose lowering on STZ-induced diabetic mice (ileum injection or oral gavage); type: in vivo; details: ileum injection, 20 IU/Kg, compared with saline baseline
# Method: Animals and diabetes induction. All animal experiments were performed according to the National Institute of Health (NIH) guidelines for animal research under a protocol approved by the Institutional Animal Care and Use Committee (IACUC) at Wayne State University. To establish streptozotocin (STZ)-induced diabetic mice model, healthy mice (C57BL/6J, male, 6-8 weeks of age, Jackson Lab) received a daily intraperitoneal injection of 5 mg/ml STZ at 50 mg/kg body weight for 5 consecutive days. 17 days after the first injection, body weight and blood glucose were measured to confirm the diabetic status. Diabetic mice with blood glucose above 300 mg/dL were selected for further in vivo test. To establish STZ-rat model, healthy rats (Sprague Dawley rat, male, ˜180 g, Charles River) received a one-time intraperitoneal injection of 65 mg/kg STZ. 10 days after injection, diabetic rats with blood glucose above 300 mg/dL were selected for further in vivo test.
# Ileum injection surgery. Mice received buprenorphine SR subcutaneously and surgical anesthesia was managed by isoflurane inhalation. The surgical site (abdomen) was shaved and prepped with three alternating scrubs of betadine and alcohol. On prepped animal, a single incision (1.5-2 cm) was made through abdomen skin. About 0.5-1 cm ileum of intestine was pulled-out from the enterocoelia. […]
# Caco-2 cells [7] = assay: In vitro cytotoxicity (MTT) and live/dead assay; type: cell-based, human; details: 0.01-1 mg/ml, 24 h
# Method: In vitro cytotoxicity and live/dead assay. In vitro cytotoxicity was evaluated using MTT assay with Caco-2 cells. Caco-2 cells were seeded on 96-well plates at a density of 2×10^4 cells per well in Eagle's Minimum Essential Medium (EMEM) with 20% FBS and cultured in 5% CO2 atmosphere at 37° C. for 24 h. Then the cells were washed twice with HBSS and incubated with 100 μl of DSPE-PCB micelle or Polysorbate 80 solutions in EMEM with concentrations of 0.01, 0.1, and 1.0 mg/ml, respectively. After 24 h of incubation at 37° C., the DSPE-PCB micelle and Polysorbate 80 solution were replaced with 100 μL of MTT solution (0.5 mg/ml in HBSS), and the cells were incubated for an additional 4 h at 37° C. Subsequently, the supernatant was carefully removed and 150 μL of dimethyl sulfoxide (DMSO) was added to each well. The absorbance of the resultant solutions was measured at 570 nm using a microplate reader (Bio-Rad, USA). Untreated cells were used as negative control for 100% cell viability. Cell viability was expressed as percentage of absorbance relative to the control. Live/dead assay was conducted by staining the cells with 100 μL of PBS buffer containing 2 μM Calcein and 4 μM ethidiumhomodimer-1 (Live/Dead viability/cytotoxicity kit, Invitrogen, CA, USA). The cells were incubated at room temperature for 30 minutes and observed by the EVOS FL fluorescence microscope (AMG).
# Caco-2 cells [8] = test system: Caco-2 cells
# Caco-2 cells [9] = assay: LDH leakage assay; details: % of untreated cell negative control; 1% with sonication, complete lysis, positive control
compound,measurement,setting,value
N[C@@H](Cc1c[nH]c2ccccc12)C(=O)O [L-tryptophan],inhibition of Caco-2 uptake of DSPE-PCB micelle particles by PAT1 substrates,"[1]; pretreatment 5 mg/ml, 1 h",significantly inhibited
CCCCCCCCCC(=O)[O-].[Na+] [sodium decanoate],TEER / permeability of Caco-2 cell layers,"Caco-2 monolayers; 0.2% w/v, 4 hours",drastically decreased TEER values
same,"serum endotoxin and pro-inflammatory cytokines (TNF-α, IFN-γ, IL-6)",healthy mice,observable increase
same,excretion ratio of lactulose to mannitol (L/M) in urine,[2],drastically higher L/M ratio values
same,tight junction morphology (TEM),[3],even more severe tight junction opening
"DSPE lipid conjugated with poly(N-methacryloyloxyethyl-N,N-dimethylammonium-α-N-methylcarboxybetaine) [DSPE-PCB micelles]",TEER / permeability of Caco-2 cell layers,Caco-2 monolayers; Caco-2,did not increase the permeability of Caco-2 cell layers
same,tight junction morphology (TEM),[4],intact tight junctions
same,MSD relative to Polysorbate 80 micelles,[5],~12 times
same,small intestine histology (H&E) on day 14,"healthy mice; mouse, in vivo, po",no significant structural damage
same,"tight junction opening, urine lactulose/mannitol test at day 14","healthy mice; mouse, in vivo, po",no significant tight junction opening
Native insulin: native insulin not encapsulated by any carrier,glucose-lowering effect,[6],hardly achieved any glucose-lowering effect
Polysorbate 80,TEER / permeability of Caco-2 cell layers,Caco-2 monolayers; Caco-2,drastically decreased TEER values
same,tight junction morphology (TEM),[4],severe tight junction opening
same,"cytotoxicity (cell viability, MTT, live/dead staining)",Caco-2 cells [7],no significant cytotoxicity
same,cellular uptake,"[1]; Caco-2 cells compared with 3T3 cells, 2 h, 37 C",no observable polysorbate 80 uptake
same,"serum endotoxin and pro-inflammatory cytokines (TNF-α, IFN-γ, IL-6)",healthy mice,observable increase
same,lactate dehydrogenase (LDH) release,Caco-2 cells [8],no significant lactate dehydrogenase (LDH) release
same,excretion ratio of lactulose to mannitol (L/M) in urine,[2],drastically higher L/M ratio values
Triton X-100,LDH leakage level,Caco-2 cells [9],240%
